Structures can show the parent of a compound that is named as a salt. Where two headings read alike, the source gives them in different places.
Key:
[1] = molecular target: T1, recombinant human GOT (Homo sapiens, UniProt P17174); assay: GOT activity assay (inhibition of glutamate formation), photometric kit; format: biochemical; conditions: for Maximum of inhibition of glutamate formation in confirmatory assay (%): confirmatory dose-response assay
T1 construct: purchased Abcam ab99147

[2] = tested on: MCAO rats; assay: Infarct volume by MRI in MCAO rats; format: in vivo, rat; conditions: riboflavin 1 mg/Kg, 24 h and 7 days after ischemia
Procedure: Four (4) experimental groups were performed: 1) a control group treated with saline (0.9% of NaCl, pH adjusted to 7.4), 2) a group treated with riboflavin 1 mg/Kg, 3) a group treated with riboflavin 1 mg/Kg in combination with dose of oxaloacetate a non-effective (15 mg/Kg) and 4) a positive control group treated with oxaloacetate 35 mg/Kg. […] Treatments were administered after artery reperfusion (45 min after occlusion). A total of 10 animals per group were included in this study. […] Infarct volume analysis were evaluated during the occlusion (30 min after occlusion), and 24h and 7 days after ischemia induction. Infarct volume determined at 30 min after artery occlusion (analyzed by diffusion weighted imaging, DWI) (Perez-Mato, M., et al., Cell Death Dis., 2014, 5:e992) was determined before treatments administration to confirm that all animals included in the study were submitted to the same ischemic insult. These values were used as basal infarct volume. […] Infarct volume, also referred herein as infarct size, was assessed by means of magnetic resonance imaging (MRI). […] Infarct volumes were determined from (ADC maps) and T2-weighted images by manually selecting areas of reduced ADC values or hyperintense T2 signal by a researcher blinded to the animal protocols.

[3] = tested on: blood glutamate; assay: Blood glutamate in ischemic (MCAO) animals; format: in vivo, rat; conditions: MCAO rats, 2 hours after administration
Procedure: Treatments were administered after artery reperfusion (45 min after occlusion). A total of 10 animals per group were included in this study. […] Infarct volume analysis were evaluated during the occlusion (30 min after occlusion), and 24h and 7 days after ischemia induction. Infarct volume determined at 30 min after artery occlusion (analyzed by diffusion weighted imaging, DWI) (Perez-Mato, M., et al., Cell Death Dis., 2014, 5:e992) was determined before treatments administration to confirm that all animals included in the study were submitted to the same ischemic insult. These values were used as basal infarct volume. […] With this purpose, dose of 35mg/Kg (average weight of animals: 350 g) of oxaloacetate (Ref 171263, Sigma) was prepared in a saline solution (0.9% of NaCl, pH adjusted to 7.4) at a final concentration of 12.25 mg/mL. […] Dose of 1 mg/Kg of riboflavin (Ref. 4500, Sigma) initially dissolved in a minimal amount of dimethyl sulfoxide (DMSO) and then dissolved in a saline solution (0.9% of NaCl, pH adjusted to 7.4) at a final concentration of 0.35 mg/mL. […] Serum samples were collected in test tubes, centrifuged at 3000 r.p.m. for 7 min, serum was removed and immediately frozen and stored at −80 ° C. Serum glutamate concentration was determined by means of Glutamate Assay Kit (Abnova, Taipei City, Taiwan) following the manufacturer's technical specifications. […]

[4] = molecular target: T2, succinate dehydrogenase (SDH) (Homo sapiens, UniProt P31040); assay: Complex II Enzyme Activity Microplate Assay (SDH inhibition); format: biochemical; conditions: dose-response curve, FIG. 1; enzyme extracted from HepG2 cells
T2 construct: endogenous in cells; host or cells: HepG2 (ATCC HB-8065); complex captured with Abcam Complex II Enzyme Activity Microplate Assay ab109908
T2 sequence (P31040 43-664): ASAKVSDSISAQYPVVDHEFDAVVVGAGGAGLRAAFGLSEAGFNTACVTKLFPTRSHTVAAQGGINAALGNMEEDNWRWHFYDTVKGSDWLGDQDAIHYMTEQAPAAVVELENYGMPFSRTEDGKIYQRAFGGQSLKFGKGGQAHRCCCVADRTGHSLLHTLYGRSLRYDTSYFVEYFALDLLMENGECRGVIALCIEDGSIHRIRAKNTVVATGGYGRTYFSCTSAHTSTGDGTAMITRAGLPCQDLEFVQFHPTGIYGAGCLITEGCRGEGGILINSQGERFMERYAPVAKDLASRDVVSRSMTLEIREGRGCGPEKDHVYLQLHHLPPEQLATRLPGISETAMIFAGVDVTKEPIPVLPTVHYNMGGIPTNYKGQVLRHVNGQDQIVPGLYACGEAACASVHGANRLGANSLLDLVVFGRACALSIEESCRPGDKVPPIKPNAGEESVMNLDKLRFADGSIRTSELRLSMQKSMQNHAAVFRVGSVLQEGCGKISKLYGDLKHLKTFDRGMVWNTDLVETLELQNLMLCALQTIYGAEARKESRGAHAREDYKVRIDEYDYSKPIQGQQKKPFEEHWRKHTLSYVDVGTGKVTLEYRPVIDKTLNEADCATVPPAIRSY
T2 sequence (P21912 29-280 partner): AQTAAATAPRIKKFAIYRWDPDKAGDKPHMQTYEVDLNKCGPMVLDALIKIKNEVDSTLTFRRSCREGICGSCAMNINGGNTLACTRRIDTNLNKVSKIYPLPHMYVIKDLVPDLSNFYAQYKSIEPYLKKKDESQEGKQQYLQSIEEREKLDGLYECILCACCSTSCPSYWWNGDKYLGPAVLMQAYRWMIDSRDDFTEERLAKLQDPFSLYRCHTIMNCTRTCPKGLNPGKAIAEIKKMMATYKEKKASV
T2 sequence (Q99643 30-169 partner): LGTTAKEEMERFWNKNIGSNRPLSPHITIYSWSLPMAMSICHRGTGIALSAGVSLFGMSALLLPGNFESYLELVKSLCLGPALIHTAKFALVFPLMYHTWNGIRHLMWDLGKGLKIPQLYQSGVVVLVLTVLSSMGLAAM
T2 sequence (O14521 57-159 partner): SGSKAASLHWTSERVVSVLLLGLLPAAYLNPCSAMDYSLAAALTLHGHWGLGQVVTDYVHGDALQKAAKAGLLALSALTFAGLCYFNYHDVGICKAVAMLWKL
Text: To evaluate possible toxic effects on SDH, a secondary assay was set up, using Complex II Enzyme Activity Microplate Assay (from Abcam, ref. ab109908), based on the detection of 2,6-diclorophenolindophenol (DCPID), blue, which is reduced in contact with Ubiquinol, turning colorless and involving the measurement of a decrease in absorbance at 595 nm. The enzyme was extracted from HepG2 cells (ATCC, ref. HB-8065), following manufacturer's instructions.

[5] = tested on: blood glutamate; assay: Blood glutamate lowering in healthy animals; format: in vivo, rat; conditions: healthy rats; for percentage of blood glutamate lowering (respect to basal levels): riboflavin 1, 10 and 50 mg/Kg i.v.
Procedure: Experimental protocols were approved by the local Animal Care Committee according to the European Union (EU) rules (86/609/CEE, 2003/65/CE and 2010/63/EU). Male Sprague-Dawley rats (Harlan Laboratories, Barcelona, Spain) with an average weight of 350 g were used. Rats were watered and fed ad libitum. The dose-response effect of riboflavin on blood glutamate lowering was determined in healthy animals. Three (3) doses of riboflavin were tested (i.v.), 1, 10 and 50 mg/Kg (weight of animal). As control group was used animals treated with saline (0.9% of NaCl, pH adjusted to 7.4), and as positive control group, animals treated with oxaloacetate 35 mg/Kg. […] A total of 6 animals per group were included in this study. […] With this purpose, dose of 35mg/Kg (average weight of animals: 350 g) of oxaloacetate (Ref 171263, Sigma) was prepared in a saline solution (0.9% of NaCl, pH adjusted to 7.4) at a final concentration of 12.25 mg/mL. Dose of 15 mg/Kg of oxaloacetate was prepared in saline solution (0.9% of NaCl, pH adjusted to 7.4) at a final concentration of 5.25 mg/mL. Dose of 1 mg/Kg of riboflavin (Ref. 4500, Sigma) initially dissolved in a minimal amount of dimethyl sulfoxide (DMSO) and then dissolved in a saline solution (0.9% of NaCl, pH adjusted to 7.4) at a final concentration of 0.35 mg/mL. […] Serum samples were collected in test tubes, centrifuged at 3000 r.p.m. for 7 min, serum was removed and immediately frozen and stored at −80 ° C. Serum glutamate concentration was determined by means of Glutamate Assay Kit (Abnova, Taipei City, Taiwan) following the manufacturer's technical specifications.

[6] = inhibition of glutamate formation, confirmatory assay, read-out: IC50(μM) in confirmatory assay
[7] = dose-response curve, FIG. 1, read-out: IC50 (GOT)

T1 sequence (P17174 whole entry): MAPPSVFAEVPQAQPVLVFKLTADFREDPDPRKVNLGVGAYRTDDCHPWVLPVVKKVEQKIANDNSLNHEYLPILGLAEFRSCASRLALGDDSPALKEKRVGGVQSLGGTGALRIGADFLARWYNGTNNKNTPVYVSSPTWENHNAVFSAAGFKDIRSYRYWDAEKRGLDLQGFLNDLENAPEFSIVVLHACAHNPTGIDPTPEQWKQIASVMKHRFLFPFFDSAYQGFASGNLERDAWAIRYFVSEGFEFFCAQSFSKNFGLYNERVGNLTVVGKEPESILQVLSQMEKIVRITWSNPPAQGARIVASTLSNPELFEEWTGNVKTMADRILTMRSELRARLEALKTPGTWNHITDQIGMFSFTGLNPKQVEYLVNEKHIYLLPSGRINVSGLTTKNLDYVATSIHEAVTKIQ

Compound | Maximum of inhibition of glutamate formation in confirmatory assay (%) [1] [%] | IC50 [1, 6] [µM] | IC50 [1, 7] [µM] | IC50 [4] [µM] | further results
(−)-3-(3,4-Dihydroxyphenyl)-2-methyl-L-alanine sesquihydrate [CBG000361] | 38.5 | 117 | – | – | –
CC(CCc1ccc(O)cc1)NCCc1ccc(O)c(O)c1 (centres unmarked) [CBG000332, Dobutamine hydrochloride] | 35.5 | 81.7 | – | – | –
Cc1cc2nc3c(=O)[nH]c(=O)nc-3n(C[C@H](O)[C@H](O)[C@H](O)CO)c2cc1C [CBG000592, 7,8-dimethyl-10-[(2S,3S,4R)-2,3,4,5-tetrahydroxypentyl]benzo[g]pteridine-2,4-dione] | 63 | 1.96 | 1.9 | 10.8 | lesion size (infarct volume) versus control [2]: significant (p<0.001) decrease of lesion size; reduction of blood glutamate levels respect to basal levels ([3]; riboflavin 1 mg/Kg at reperfusion): about 30%; percentage of blood glutamate lowering (respect to basal levels) ([5]; 30 min): about 25%; percentage of blood glutamate lowering (respect to basal levels) ([5]; 2 h): about 50%; percentage of blood glutamate lowering (respect to basal levels) ([5]; 4 h): 60%; percentage of blood glutamate lowering (respect to basal levels) ([5]; 6 h): 50%
Doxycycline hyclate [CBG000814] | 32 | 15.1 | – | – | –
CN1CCc2cccc3c2[C@H]1Cc1ccc(O)c(O)c1-3.CN1CCc2cccc3c2[C@H]1Cc1ccc(O)c(O)c1-3.Cl.Cl.O [CBG000083, R-(−)-Apomorphine hydrochloride hemihydrate] | 56.5 | 58.1 | – | – | –
O=C(O)CC(=O)C(=O)O [oxaloacetate, 3-carboxy-3-oxopropanoate] | – | – | 130 | 1.8 | reduction of blood glutamate levels respect to basal levels ([3]; oxaloacetate 35 mg/Kg at reperfusion): about 30%; percentage of glutamate levels reduction ([5]; oxaloacetate 35 mg/Kg i.v., 2, 4 and 6 hours): ≤ 40%; reduction of blood glutamate levels ([5]; oxaloacetate 35 mg/Kg i.v., 30 min): no effect

Source: US20180153897A1, “RIBOFLAVIN FOR THE TREATMENT OF ISCHEMIC STROKE AND/OR OTHER GLUTAMATE EXCITOTOXICITY-ASSOCIATED DISEASES” (priority 2015, published 2018)
